Assay results taken from ChEMBL document CHEMBL1909046, “DrugMatrix in vitro pharmacology data”.

How the values were obtained:
Cannabinoid receptor 1 = Cannabinoid receptor 1 (Homo sapiens, UniProt P21554); assay type: cell membranes, Chem-1, Membrane; conditions: chem-1; note: in other assays of this panel Not Active means under 50% inhibition at 10 µM
[1] = DRUGMATRIX: Calcium Channel Type L, Dihydropyridine radioligand binding (ligand: [3H] Nitrendipine); assay type: cell membranes, Rattus norvegicus, Wistar, Cerebral cortex, Membrane; conditions: Not Active = under 50% inhibition at 10 µM
Cytochrome P450 1A2 = molecular target: T1, Cytochrome P450 1A2 (Homo sapiens, UniProt P05177); conditions: bti-tn-5b1-4; note: in other assays of this panel Not Active means under 50% inhibition at 10 µM
T1 sequence (P05177 whole entry): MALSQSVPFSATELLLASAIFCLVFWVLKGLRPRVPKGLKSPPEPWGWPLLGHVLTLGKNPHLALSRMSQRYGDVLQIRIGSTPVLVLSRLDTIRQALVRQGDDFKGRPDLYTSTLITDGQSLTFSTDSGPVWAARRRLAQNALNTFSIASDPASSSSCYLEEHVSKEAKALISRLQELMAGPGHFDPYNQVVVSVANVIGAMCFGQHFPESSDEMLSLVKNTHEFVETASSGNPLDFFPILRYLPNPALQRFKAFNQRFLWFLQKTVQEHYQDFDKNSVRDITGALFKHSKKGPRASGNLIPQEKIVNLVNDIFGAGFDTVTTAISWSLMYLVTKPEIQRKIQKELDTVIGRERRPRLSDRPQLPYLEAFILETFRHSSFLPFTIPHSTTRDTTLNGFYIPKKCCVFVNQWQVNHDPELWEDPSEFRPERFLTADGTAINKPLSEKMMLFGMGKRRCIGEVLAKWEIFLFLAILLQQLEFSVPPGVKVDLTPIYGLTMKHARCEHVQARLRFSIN

Cytochrome P450 2C9 = Cytochrome P450 2C9 (Homo sapiens, UniProt P11712); conditions: bti-tn-5b1-4; note: in other assays of this panel Not Active means under 50% inhibition at 10 µM
Chain of Cytochrome P450 2C9 (P11712 whole entry): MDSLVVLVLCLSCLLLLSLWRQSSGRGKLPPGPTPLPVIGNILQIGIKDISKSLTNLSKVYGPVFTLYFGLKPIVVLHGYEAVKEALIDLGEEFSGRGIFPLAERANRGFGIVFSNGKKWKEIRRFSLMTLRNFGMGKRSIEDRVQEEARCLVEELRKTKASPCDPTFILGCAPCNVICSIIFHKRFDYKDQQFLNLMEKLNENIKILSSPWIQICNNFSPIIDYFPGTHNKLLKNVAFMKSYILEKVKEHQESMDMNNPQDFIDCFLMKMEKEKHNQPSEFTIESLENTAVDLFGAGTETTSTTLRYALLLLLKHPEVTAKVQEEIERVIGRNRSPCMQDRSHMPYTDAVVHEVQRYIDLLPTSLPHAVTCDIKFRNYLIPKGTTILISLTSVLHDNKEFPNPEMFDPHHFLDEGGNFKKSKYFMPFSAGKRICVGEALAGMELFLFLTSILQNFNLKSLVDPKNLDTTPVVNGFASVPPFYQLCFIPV

Carbonic anhydrase 2 = Carbonic anhydrase 2 (Homo sapiens, UniProt P00918); assay: DRUGMATRIX: Carbonic Anhydrase II enzyme inhibition (substrate: 4-Nitrophenyl acetate (4-NPA)); assay type: tissue-based, Erythrocyte; conditions: erythrocyte; Not Active = under 50% inhibition at 10 µM
[2] = molecular target: T2, 3-hydroxy-3-methylglutaryl-coenzyme A reductase (Homo sapiens, UniProt P04035); set-up: species or system Escherichia coli;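 note: enzyme inhibition assay of HMG-CoA reductase using radiolabeled [14C]HMG-CoA as substrate; in other assays of this panel Not Active means under 50% inhibition at 10 µM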
T2 sequence (P04035 whole entry): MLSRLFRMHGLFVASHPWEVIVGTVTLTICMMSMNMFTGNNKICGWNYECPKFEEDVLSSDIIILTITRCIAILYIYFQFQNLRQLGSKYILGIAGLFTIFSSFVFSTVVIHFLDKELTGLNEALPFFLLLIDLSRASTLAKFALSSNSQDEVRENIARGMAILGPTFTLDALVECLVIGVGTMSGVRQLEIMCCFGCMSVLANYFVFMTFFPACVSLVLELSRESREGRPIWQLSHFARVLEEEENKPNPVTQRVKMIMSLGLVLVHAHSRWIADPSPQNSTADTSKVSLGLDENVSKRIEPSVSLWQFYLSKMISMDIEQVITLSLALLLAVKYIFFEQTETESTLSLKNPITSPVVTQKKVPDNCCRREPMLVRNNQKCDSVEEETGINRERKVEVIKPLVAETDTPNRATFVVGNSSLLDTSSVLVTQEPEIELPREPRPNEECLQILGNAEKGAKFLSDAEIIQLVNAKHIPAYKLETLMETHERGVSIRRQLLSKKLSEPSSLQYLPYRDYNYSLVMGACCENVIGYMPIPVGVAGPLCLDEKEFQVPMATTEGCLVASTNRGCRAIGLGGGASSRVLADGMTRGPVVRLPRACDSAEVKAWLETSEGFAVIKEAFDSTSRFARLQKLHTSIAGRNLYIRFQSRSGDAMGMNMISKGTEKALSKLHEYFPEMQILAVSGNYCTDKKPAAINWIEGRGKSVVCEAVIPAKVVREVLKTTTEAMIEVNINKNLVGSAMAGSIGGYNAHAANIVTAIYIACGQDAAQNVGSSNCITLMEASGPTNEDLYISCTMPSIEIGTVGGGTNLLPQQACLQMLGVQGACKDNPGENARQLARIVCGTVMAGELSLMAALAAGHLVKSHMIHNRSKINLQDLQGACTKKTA

Cathepsin G = molecular target: T3, Cathepsin G (Homo sapiens, UniProt P08311); assay: biochemical; assay type: tissue-based, Neutrophil; conditions: neutrophil
T3 sequence (P08311 whole entry): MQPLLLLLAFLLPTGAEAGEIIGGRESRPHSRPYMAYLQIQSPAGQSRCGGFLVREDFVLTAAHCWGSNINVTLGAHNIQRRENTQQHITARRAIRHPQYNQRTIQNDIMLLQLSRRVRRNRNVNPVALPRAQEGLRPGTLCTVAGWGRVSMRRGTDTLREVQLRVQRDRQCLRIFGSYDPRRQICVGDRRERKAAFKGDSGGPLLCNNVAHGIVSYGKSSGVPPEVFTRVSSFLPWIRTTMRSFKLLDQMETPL

[3] = DRUGMATRIX: Glutamate, Kainate radioligand binding (ligand: [3H] Kainic acid); assay type: cell membranes, Rattus norvegicus, Wistar, Brain, Membrane; conditions: Not Active = under 50% inhibition at 10 µM

Chain of Cannabinoid receptor 1 (P21554 whole entry): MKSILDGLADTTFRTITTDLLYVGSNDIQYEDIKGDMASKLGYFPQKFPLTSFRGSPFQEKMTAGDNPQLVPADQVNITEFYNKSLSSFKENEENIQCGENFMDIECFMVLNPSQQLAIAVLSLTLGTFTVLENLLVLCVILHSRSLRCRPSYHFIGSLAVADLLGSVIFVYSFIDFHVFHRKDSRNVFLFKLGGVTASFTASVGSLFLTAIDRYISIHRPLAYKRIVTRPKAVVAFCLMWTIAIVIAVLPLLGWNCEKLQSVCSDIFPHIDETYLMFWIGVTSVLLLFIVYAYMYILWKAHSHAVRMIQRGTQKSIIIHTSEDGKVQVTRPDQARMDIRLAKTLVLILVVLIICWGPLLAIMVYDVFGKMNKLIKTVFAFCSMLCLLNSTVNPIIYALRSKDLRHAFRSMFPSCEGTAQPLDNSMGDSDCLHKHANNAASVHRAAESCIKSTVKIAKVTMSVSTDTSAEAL

Oc1ccccc1 [PHENOL]
Not Active: IC50 (Cannabinoid receptor 1) | IC50 [1] | Ki [1] | IC50 (Cytochrome P450 1A2) | Ki (Cytochrome P450 1A2) | IC50 (Cytochrome P450 2C9) | Ki (Cytochrome P450 2C9) | IC50 (Carbonic anhydrase 2) | IC50 [2] | IC50 (Cathepsin G) | IC50 [3] | Ki [3]

Nc1nc(F)nc2c1ncn2[C@@H]1O[C@H](CO)[C@@H](O)[C@@H]1O [FLUDARABINE]
Not Active: IC50 (Cannabinoid receptor 1) | IC50 [1] | Ki [1] | IC50 (Cytochrome P450 1A2) | Ki (Cytochrome P450 1A2) | IC50 (Cytochrome P450 2C9) | Ki (Cytochrome P450 2C9) | IC50 (Carbonic anhydrase 2) | IC50 [2] | IC50 (Cathepsin G) | IC50 [3] | Ki [3]

O=C1CN(/N=C/c2ccc([N+](=O)[O-])o2)C(=O)N1 [NITROFURANTOIN]
Not Active: IC50 (Cannabinoid receptor 1) | IC50 [1] | Ki [1] | IC50 (Cytochrome P450 1A2) | Ki (Cytochrome P450 1A2) | IC50 (Cytochrome P450 2C9) | Ki (Cytochrome P450 2C9) | IC50 (Carbonic anhydrase 2) | IC50 [2] | IC50 (Cathepsin G) | IC50 [3] | Ki [3]

CC12CCC(CC1=O)C2(C)C (configuration not stated) [CAMPHOR]
Not Active: IC50 (Cannabinoid receptor 1) | IC50 [1] | Ki [1] | IC50 (Cytochrome P450 1A2) | Ki (Cytochrome P450 1A2) | IC50 (Cytochrome P450 2C9) | Ki (Cytochrome P450 2C9) | IC50 (Carbonic anhydrase 2) | IC50 [2] | IC50 (Cathepsin G) | IC50 [3] | Ki [3]

Nc1nc(N)c2nc(CNc3ccc(C(=O)N[C@@H](CCC(=O)O)C(=O)O)cc3)cnc2n1 [AMINOPTERIN]
Not Active: IC50 (Cannabinoid receptor 1) | IC50 [1] | Ki [1] | IC50 (Cytochrome P450 1A2) | Ki (Cytochrome P450 1A2) | IC50 (Cytochrome P450 2C9) | Ki (Cytochrome P450 2C9) | IC50 (Carbonic anhydrase 2) | IC50 [2] | IC50 (Cathepsin G) | IC50 [3] | Ki [3]

Cc1c(N)nc([C@H](CC(N)=O)NC[C@H](N)C(N)=O)nc1C(=O)N[C@H](C(=O)N[C@H](C)[C@@H](O)[C@H](C)C(=O)N[C@H](C(=O)NCCc1nc(-c2nc(C(=O)NCCC[S+](C)C)cs2)cs1)[C@@H](C)O)[C@@H](O[C@@H]1O[C@@H](CO)[C@@H](O)[C@H](O)[C@@H]1O[C@H]1O[C@H](CO)[C@@H](O)[C@H](OC(N)=O)[C@@H]1O)c1c[nH]cn1.[Br-] [BLEOMYCIN A2]
Not Active: IC50 (Cannabinoid receptor 1) | IC50 [1] | Ki [1] | IC50 (Cytochrome P450 1A2) | Ki (Cytochrome P450 1A2) | IC50 (Cytochrome P450 2C9) | Ki (Cytochrome P450 2C9) | IC50 (Carbonic anhydrase 2) | IC50 [2] | IC50 (Cathepsin G) | IC50 [3] | Ki [3]
